These results are taken from paper PMC11435438, “Cyclin-Dependent Kinase 8 Represents a Positive Regulator of Cytomegalovirus Replication and a Novel Host Target for Antiviral Strategies” (Pharmaceutics, 2024).

For series [1], the system named is HCMV AD169-GFP. In words: microbe, parasite or virus in culture. Type of series: cell-based, human cytomegalovirus. Here is the method: (i.e., 1 × TCID25/7d). Immediately after virus adsorption, the cells were treated with antiviral compounds or solvent control (DMSO). Infections were performed in biological quadruplicates, or as indicated for individual experiments. The cells were fixed by the addition of 150 µL 10% formalin/well 7 d p.i. (Merlin-GFP 14 d p.i.), and washed with PBS. For GFP or YFP quantitation, the Victor X4 microplate reader (PerkinElmer, Waltham, MA, USA) was primarily used, or as a very sensitive alternative, the ImageXpress® Pico device (Molecular Devices LLC, San Jose, CA, USA). Mean EC50 values of antiviral efficacy were calculated on the basis of three experimental replicates or as indicated (measurement of fluorescence values in quadruplicate), and percentage values were provided relative to the solvent control (DMSO).

The nature of series [2]: Neutral Red uptake cell viability assay in mock-infected HFFs. The following applies: human, read-out: CC50 Mock-inf. The format is cell-based. Here is the method:
(§1) To address cell viability after compound treatment, a NR uptake assay was performed. Uninfected cells were seeded at equal numbers as for antiviral replication assays and treated with compounds or solvent control. The treatment was performed for HFFs (7 d), U373 (14 d), A549 (3 d), J-Jhan (14 d), and non-dox-induced iSLK.219 cells (3 d). At the end of the treatment period, 40 µg/mL of Neutral Red (NR) was added and incubated for 2–4 h at 37 °C, before the NR-containing supernatant was removed. Cells were destained using a solution containing 50% ethanol, 1% acetic acid, and 49% water. NR fluorescence was quantified using the Victor X4 microplate reader (PerkinElmer, Waltham, MA, USA) (560/630 nm). For the AB cell viability assay, which was also used to quantify virus-induced cytopathogenicity (particularly in the case of GPCMV in GPEFs), cells were seeded at equal numbers as for antiviral replication assays and incubated with a medium containing 25 ng/mL AB (resazurin; Ann Arbor, MI, USA), incubated for 6 h at 37 °C, and used for measurement identical with NR.

A short description of series [3]: Neutral Red uptake cell viability assay in mock-infected U373 cells. Type of series: cell-based. Conditions: human, read-out: CC50 Mock-inf. Here is the method:
as §1

In series [4] the test system is GPCMV-GFP. In words: GPCMV-GFP replication assay in GPEFs. Type of series: cell-based, guinea pig cytomegalovirus. The following applies: Caviid betaherpesvirus 2, read-out: EC50 GPCMV.
Text: Similarly, 2 × 10^4 primary embryonic guinea pig fibroblasts GPEFs/96-well, or 1.35 × 10^4 HFFs/96-well, or 2 × 10^4 rat REFs/96-well, or 2 × 10^4 murine MEFs/96-well, were cultivated for infection with GPCMV-GFP, RhCMV-GFP, ChCMV, RCMV-mCherry, or MCMV-GFP, respectively (all approx. MOI of 0.01 referring to 1 × TCID25), and were used for the assessment of antiviral drug activity. To this end, cells were fixed 7 d p.i. (RCMV-mCherry 4 d p.i.), before GFP or mCherry expression was quantified using the Victor X4 microplate reader, or other viral replication markers were measured as explained for the individual experiments. ChCMV replication in HFFs was monitored and quantified by the use of Anti-Cytomegalovirus Antibody Alexa Fluor™ 488. For immunofluorescence staining with Anti-Cytomegalovirus Antibody Alexa Fluor™ 488 (Sigma Aldrich, St. Louis, MO, USA; solution in PBS with 1% FCS), the infected cells were fixed at 7 d p.i. with 10% formalin and permeabilized with 0.2% Triton-x-100. Cell nuclei were counterstained using Höchst dye to be measured using the ImageXpress Pico (Molecular Devices, LLC, San Jose, CA, USA). Mean EC50 values of antiviral efficacy were calculated on the basis of three experimental replicates or as indicated (measurement of fluorescence values in quadruplicate), and percentage values were provided relative to the solvent control (DMSO).
as §1, with “The treatment was performed for HFFs (7 d), U373 (14 d), A549 (3 d), J-Jhan (14 d), and non-dox-induced iSLK.219 cells (3 d). At the end of the treatment period, 40 µg/mL of Neutral Red (NR) was added and incubated for 2–4 h at 37 °C, before the NR-containing supernatant was removed. Cells were destained using a solution containing 50% ethanol, 1% acetic acid, and 49% water.” left out

Setting [5] is: Human betaherpesvirus 5, AD169, HFF, read-out: EC50 AD169-GFP.
The mark [6] stands for this setting: Human betaherpesvirus 5, AD169, read-out: EC50 HCMV.
Setting [7] is: mock-infected (uninfected) HFFs.
[8] abbreviates: mock-infected (uninfected) U373 cells.

Read-outs that look alike come from different tables or passages of the source.

Turning to `Cc1n[nH]c2ncc(C(=O)N3CCC[C@H]3c3ccc(Cl)cc3)cc12` [MSC-2530818], the figures for the 50% effective concentration (EC50) in series [1] (setting [5]), in series [1] (setting [6]) and in series [4] were 1.21 ± 0.77 nM, 1.21 ± 0.77 nM and 4.48 ± 4.84 nM, respectively. Besides, the CC50 at 7 d in series [2] (setting [7]) is above 100000 nM. Also, the CC50 at 14 d in series [3] (setting [8]) turned out to be 87000 ± 6000 nM.

With `CN(C)C(=O)Cn1cc(-c2ccc(-c3cncc4ccccc34)cc2)cn1` [BI-1347], the results for the EC50 in series [1] (setting [5]), in series [1] (setting [6]) and in series [4] were 0.93 ± 0.67 nM, 0.93 ± 0.67 nM and 1.11 ± 2.37 nM, respectively. The CC50 at 7 d in series [2] (setting [7]) is above 100000 nM. For the same compound, in series [3] (setting [8]), the CC50 at 14 d is above 100000 nM.

As for `Cn1ncc2cc(-c3cnc(N)c(Cl)c3N3CCC4(CCNC4=O)CC3)ccc21` [CCT-151921], the values for the EC50 in series [1] (setting [5]), in series [1] (setting [6]) and in series [4] were 3.9 ± 2 nM, 3.9 ± 2 nM and 19.4 ± 33.2 nM, respectively. Besides, the CC50 at 7 d in series [2] (HFF) is above 100000 nM. In addition, in series [3] (U373), the CC50 at 14 d was above 100000 nM.
